Data as given in paper PMC5218480 (PLoS ONE, 2017).

System: MV-4-11 cells
Assay: Gene expression microarray analysis (Affymetrix PrimeView) and GSEA
Type: cell-based, human
Design: RFU PODN (11730768_x_at) / Fold change /veh PODN (11730768_x_at) / RFU LINC00158 (11744669_a_at) / Fold change /veh LINC00158 (11744669_a_at) / RFU DUSP10 (11751237_a_at) / Fold change /veh DUSP10 (11751237_a_at) / RFU ID3 (11757404_x_at) / Fold change /veh ID3 (11757404_x_at) / RFU PLEKHG5 (11737974_s_at) / Fold change /veh PLEKHG5 (11737974_s_at) / RFU LRRC4B (11730491_at) / Fold change /veh LRRC4B (11730491_at) / RFU GIMAP4 (11747438_a_at) / Fold change /veh GIMAP4 (11747438_a_at) / RFU KRT8 (11758183_x_at) / Fold change /veh KRT8 (11758183_x_at) / RFU CNN1 (11734310_a_at) / Fold change /veh CNN1 (11734310_a_at) / RFU VPS37D (11726825_at) / Fold change /veh VPS37D (11726825_at) / RFU C10orf10 (11716522_x_at) / Fold change /veh C10orf10 (11716522_x_at) / RFU KIR2DL2 /// KIR2DL4 /// KIR2DL5A /// KIR2DL5B /// KIR2DS1 /// KIR2DS2 /// KIR2DS3 /// KIR2DS4 /// KIR3DL3 /// KIR3DL3 /// KIR3DS1 (11738374_at) / Fold change /veh KIR2DL2 /// KIR2DL4 /// KIR2DL5A /// KIR2DL5B /// KIR2DS1 /// KIR2DS2 /// KIR2DS3 /// KIR2DS4 /// KIR3DL3 /// KIR3DL3 /// KIR3DS1 (11738374_at) / RFU C1QL1 (11718748_at) / Fold change /veh C1QL1 (11718748_at) / RFU TMPRSS4 (11747572_a_at) / Fold change /veh TMPRSS4 (11747572_a_at) / RFU HAMP (11756126_x_at) / Fold change /veh HAMP (11756126_x_at) / RFU RNFT2 (11725882_a_at) / Fold change /veh RNFT2 (11725882_a_at) / RFU NR4A2 (11747474_a_at) / Fold change /veh NR4A2 (11747474_a_at) / RFU ABCC12 (11746883_a_at) / Fold change /veh ABCC12 (11746883_a_at) / RFU TMEM136 (11760407_x_at) / Fold change /veh TMEM136 (11760407_x_at) / RFU CLDN22 /// WWC2 (11732394_at) / Fold change /veh CLDN22 /// WWC2 (11732394_at) / RFU HLA-DPB1 (11760878_x_at) / Fold change /veh HLA-DPB1 (11760878_x_at) / RFU SPINT1 (11716480_a_at) / Fold change /veh SPINT1 (11716480_a_at) / RFU GAP43 (11754022_s_at) / Fold change /veh GAP43 (11754022_s_at) / RFU A4GNT (11735810_at) / Fold change /veh A4GNT (11735810_at) / RFU PRB3 (11715151_x_at) / Fold change /veh PRB3 (11715151_x_at) / RFU TUBB4B (11761932_at) / Fold change /veh TUBB4B (11761932_at) / RFU CAPN14 (11732068_a_at) / Fold change /veh CAPN14 (11732068_a_at) / RFU TMCC2 (11721928_a_at) / Fold change /veh TMCC2 (11721928_a_at) / RFU IRGQ (11745062_a_at) / Fold change /veh IRGQ (11745062_a_at) / RFU FAM174B (11720279_a_at) / Fold change /veh FAM174B (11720279_a_at) / RFU TMPRSS4 (11748680_a_at) / Fold change /veh TMPRSS4 (11748680_a_at) / RFU FAM212B (11763350_a_at) / Fold change /veh FAM212B (11763350_a_at) / RFU PLEKHG5 (11743358_a_at) / Fold change /veh PLEKHG5 (11743358_a_at) / RFU ZSCAN30 (11745921_a_at) / Fold change /veh ZSCAN30 (11745921_a_at) / RFU CMKLR1 (11741424_a_at) / Fold change /veh CMKLR1 (11741424_a_at) / RFU LOC101060620 /// MAPK8IP1 (11723275_at) / Fold change /veh LOC101060620 /// MAPK8IP1 (11723275_at) / RFU SPTSSB (11747773_x_at) / Fold change /veh SPTSSB (11747773_x_at) / RFU PRSS12 (11739890_at) / Fold change /veh PRSS12 (11739890_at) / RFU BIN1 (11741810_x_at) / Fold change /veh BIN1 (11741810_x_at) / RFU WNT11 (11732464_a_at) / Fold change /veh WNT11 (11732464_a_at) / RFU C10orf10 (11716521_a_at) / Fold change /veh C10orf10 (11716521_a_at) / RFU C5orf56 (11738089_at) / Fold change /veh C5orf56 (11738089_at) / RFU CYB561 (11721691_x_at) / Fold change /veh CYB561 (11721691_x_at) / RFU ANKRD19P (11752326_a_at) / Fold change /veh ANKRD19P (11752326_a_at) / RFU OR2T12 /// OR2T33 /// OR2T8 (11738714_s_at) / Fold change /veh OR2T12 /// OR2T33 /// OR2T8 (11738714_s_at) / RFU VCAN (11748164_a_at) / Fold change /veh VCAN (11748164_a_at) / RFU JSRP1 (11732532_at) / Fold change /veh JSRP1 (11732532_at) / RFU KRTAP10-11 (11738290_x_at) / Fold change /veh KRTAP10-11 (11738290_x_at) / RFU MYO3A (11730013_a_at) / Fold change /veh MYO3A (11730013_a_at) / RFU EBF3 (11725865_a_at) / Fold change /veh EBF3 (11725865_a_at) / RFU CAMK2N1 (11719241_x_at) / Fold change /veh CAMK2N1 (11719241_x_at) / RFU C5orf56 (11738088_a_at) / Fold change /veh C5orf56 (11738088_a_at) / RFU OLFML3 (11715873_a_at) / Fold change /veh OLFML3 (11715873_a_at) / RFU LOC100653217 /// NTM (11731650_a_at) / Fold change /veh LOC100653217 /// NTM (11731650_a_at) / RFU MAPK11 (11762145_a_at) / Fold change /veh MAPK11 (11762145_a_at) / RFU FIZ1 (11724087_x_at) / Fold change /veh FIZ1 (11724087_x_at) / RFU OASL (11726364_x_at) / Fold change /veh OASL (11726364_x_at) / RFU SOX15 (11748057_x_at) / Fold change /veh SOX15 (11748057_x_at) / RFU CD79A (11719716_a_at) / Fold change /veh CD79A (11719716_a_at) / RFU HIST1H1D (11736915_at) / Fold change /veh HIST1H1D (11736915_at) / RFU CASKIN2 (11723855_a_at) / Fold change /veh CASKIN2 (11723855_a_at) / RFU LOC730098 (11760151_x_at) / Fold change /veh LOC730098 (11760151_x_at) / RFU OR4N2 (11742367_at) / Fold change /veh OR4N2 (11742367_at) / RFU PRRT2 (11749266_a_at) / Fold change /veh PRRT2 (11749266_a_at) / RFU SNX32 (11753110_a_at) / Fold change /veh SNX32 (11753110_a_at) / RFU CDHR5 (11726645_a_at) / Fold change /veh CDHR5 (11726645_a_at) / RFU RCAN1 (11760418_a_at) / Fold change /veh RCAN1 (11760418_a_at) / RFU FAM167A (11723789_a_at) / Fold change /veh FAM167A (11723789_a_at) / RFU FAM26E (11764081_at) / Fold change /veh FAM26E (11764081_at) / RFU ISYNA1 (11749810_s_at) / Fold change /veh ISYNA1 (11749810_s_at) / RFU ACY1 (11761880_at) / Fold change /veh ACY1 (11761880_at) / RFU 11764098_at / Fold change /veh 11764098_at / RFU SAMD14 (11745864_x_at) / Fold change /veh SAMD14 (11745864_x_at) / RFU NPB (11741838_a_at) / Fold change /veh NPB (11741838_a_at) / RFU TMPRSS6 (11731388_a_at) / Fold change /veh TMPRSS6 (11731388_a_at) / RFU KRTAP10-2 (11738614_at) / Fold change /veh KRTAP10-2 (11738614_at) / RFU ARHGAP8 /// PRR5-ARHGAP8 (11727945_x_at) / Fold change /veh ARHGAP8 /// PRR5-ARHGAP8 (11727945_x_at) / RFU KRTAP5-7 /// NADSYN1 (11734609_at) / Fold change /veh KRTAP5-7 /// NADSYN1 (11734609_at) / RFU RASL12 (11751679_a_at) / Fold change /veh RASL12 (11751679_a_at) / RFU CDKN2B (11736163_a_at) / Fold change /veh CDKN2B (11736163_a_at) / RFU PRF1 (11729649_at) / Fold change /veh PRF1 (11729649_at) / RFU, ZNF638 /// ZNF638-IT1 / Fold change vs veh, ZNF638 /// ZNF638-IT1 / RFU, PANK3 / Fold change vs veh, PANK3 / RFU, SH3YL1 / Fold change vs veh, SH3YL1 / RFU, ZEB2 / Fold change vs veh, ZEB2 / RFU, NRIP1 / Fold change vs veh, NRIP1 / RFU, PTTG1IP / Fold change vs veh, PTTG1IP / RFU, CAPN2 / Fold change vs veh, CAPN2 / RFU, MED14 / Fold change vs veh, MED14 / RFU, SNORA58 / Fold change vs veh, SNORA58 / RFU, C1orf63 / Fold change vs veh, C1orf63 / RFU, LRRFIP1 / Fold change vs veh, LRRFIP1 / RFU, NDUFAF7 / Fold change vs veh, NDUFAF7 / RFU, SLC12A2 / Fold change vs veh, SLC12A2 / RFU, IBTK / Fold change vs veh, IBTK / RFU, ESF1 / Fold change vs veh, ESF1 / Fold change vs veh, TMEM50B / RFU, TAOK1 / Fold change vs veh, TAOK1 / RFU, ACBD3 / Fold change vs veh, ACBD3 / RFU, TMA16 / Fold change vs veh, TMA16 / RFU, RWDD3 / Fold change vs veh, RWDD3 / RFU, BCAT1 / Fold change vs veh, BCAT1 / RFU, EDEM3 / Fold change vs veh, EDEM3 / RFU, TMEM33 / Fold change vs veh, TMEM33 / RFU, WDR75 / Fold change vs veh, WDR75 / RFU, AHCTF1 / Fold change vs veh, AHCTF1 / RFU, TFRC / Fold change vs veh, TFRC / RFU, ZDHHC17 / Fold change vs veh, ZDHHC17 / RFU, NOM1 / Fold change vs veh, NOM1 / RFU, ARL8B / Fold change vs veh, ARL8B / RFU, ZBTB11 / Fold change vs veh, ZBTB11 / RFU, TAMM41 / Fold change vs veh, TAMM41 / RFU, KIAA1704 /// LOC100996395 / Fold change vs veh, KIAA1704 /// LOC100996395 / RFU, ING1 / Fold change vs veh, ING1 / RFU, TRMT61B / Fold change vs veh, TRMT61B / RFU, FUBP3 / Fold change vs veh, FUBP3 / RFU, TP53 / Fold change vs veh, TP53 / RFU, TNKS2 / Fold change vs veh, TNKS2 / RFU, ZFP14 / Fold change vs veh, ZFP14 / RFU, ACTR2 / Fold change vs veh, ACTR2 / RFU, PPP3R1 / Fold change vs veh, PPP3R1 / RFU, PIK3R1 / Fold change vs veh, PIK3R1 / RFU, HNRNPA1 / Fold change vs veh, HNRNPA1 / RFU, RNF170 / Fold change vs veh, RNF170 / RFU, ZNF28 / Fold change vs veh, ZNF28 / RFU, RNGTT / Fold change vs veh, RNGTT / RFU, OGT / Fold change vs veh, OGT / RFU, BRD1 / Fold change vs veh, BRD1 / RFU, MARS / Fold change vs veh, MARS / RFU, ZNF655 / Fold change vs veh, ZNF655 / RFU, FAHD1 / Fold change vs veh, FAHD1 / RFU, BDP1 / Fold change vs veh, BDP1 / RFU, LRRCC1 / Fold change vs veh, LRRCC1 / RFU, ARID1A / Fold change vs veh, ARID1A / RFU, ZNF146 / Fold change vs veh, ZNF146 / RFU, ZNF330 / Fold change vs veh, ZNF330 / RFU, GPN3 / Fold change vs veh, GPN3 / RFU, C9orf123 / Fold change vs veh, C9orf123 / RFU, N4BP2L2 / Fold change vs veh, N4BP2L2 / RFU, ARFIP1 / Fold change vs veh, ARFIP1 / RFU, FAM179B / Fold change vs veh, FAM179B / RFU, BCL10 / Fold change vs veh, BCL10 / RFU, UHRF1BP1L / Fold change vs veh, UHRF1BP1L / RFU, BET1 / Fold change vs veh, BET1 / RFU, CNOT2 / Fold change vs veh, CNOT2 / RFU, ZNF268 / Fold change vs veh, ZNF268 / Fold change vs veh, ZNF507 / RFU, DGCR2 / Fold change vs veh, DGCR2 / RFU, WDSUB1 / Fold change vs veh, WDSUB1 / Fold change vs veh, HSP90B1 /// MIR3652 / RFU, ADSS / Fold change vs veh, ADSS / RFU, GK / Fold change vs veh, GK / RFU, ZNF148 / Fold change vs veh, ZNF148 / RFU, TAF9 / Fold change vs veh, TAF9 / RFU, SLC1A5 / Fold change vs veh, SLC1A5 / RFU, SLMO2 / Fold change vs veh, SLMO2 / RFU, ABCC4 / Fold change vs veh, ABCC4 / RFU, LOC101060439 /// RAP1B / Fold change vs veh, LOC101060439 /// RAP1B / RFU, RFX7 / Fold change vs veh, RFX7 / RFU, GTPBP10 / Fold change vs veh, GTPBP10 / RFU, CNEP1R1 / Fold change vs veh, CNEP1R1 / RFU, BIVM-ERCC5 /// ERCC5 / Fold change vs veh, BIVM-ERCC5 /// ERCC5 / RFU, ILF3 / Fold change vs veh, ILF3 / RFU 11762660_at / Fold change /veh 11762660_at / RFU VCAN (11757783_s_at) / Fold change /veh VCAN (11757783_s_at) / RFU DDX43 (11728927_at) / Fold change /veh DDX43 (11728927_at) / RFU KRT8 (11758188_x_at) / Fold change /veh KRT8 (11758188_x_at) / RFU NKD1 (11759106_at) / Fold change /veh NKD1 (11759106_at) / RFU SRD5A1 (11742802_a_at) / Fold change /veh SRD5A1 (11742802_a_at) / RFU TPSAB1 /// TPSB2 (11721975_s_at) / Fold change /veh TPSAB1 /// TPSB2 (11721975_s_at) / RFU GSTM3 (11746129_a_at) / Fold change /veh GSTM3 (11746129_a_at) / RFU IL23R (11737362_x_at) / Fold change /veh IL23R (11737362_x_at) / RFU TMEM51 (11727254_a_at) / Fold change /veh TMEM51 (11727254_a_at) / RFU PIWIL2 (11732686_x_at) / Fold change /veh PIWIL2 (11732686_x_at) / RFU ORM1 (11744905_x_at) / Fold change /veh ORM1 (11744905_x_at) / RFU CCDC152 (11743942_at) / Fold change /veh CCDC152 (11743942_at) / RFU ECM1 (11717891_a_at) / Fold change /veh ECM1 (11717891_a_at) / RFU IL23R (11748794_a_at) / Fold change /veh IL23R (11748794_a_at) / RFU TNFAIP8L3 (11732012_x_at) / Fold change /veh TNFAIP8L3 (11732012_x_at) / RFU MBOAT4 (11741988_at) / Fold change /veh MBOAT4 (11741988_at) / RFU 11764193_at / Fold change /veh 11764193_at / RFU TMEM53 (11763286_at) / Fold change /veh TMEM53 (11763286_at) / RFU MAGEB2 (11727129_at) / Fold change /veh MAGEB2 (11727129_at) / RFU TMEM200A (11744735_a_at) / Fold change /veh TMEM200A (11744735_a_at) / RFU CCDC152 (11751479_a_at) / Fold change /veh CCDC152 (11751479_a_at) / RFU FAM211A (11726209_a_at) / Fold change /veh FAM211A (11726209_a_at) / RFU RGS16 (11746705_a_at) / Fold change /veh RGS16 (11746705_a_at) / RFU VCAN (11755009_s_at) / Fold change /veh VCAN (11755009_s_at) / RFU RHOB (11743442_s_at) / Fold change /veh RHOB (11743442_s_at) / RFU RGS16 (11720943_a_at) / Fold change /veh RGS16 (11720943_a_at) / RFU RGS16 (11720944_at) / Fold change /veh RGS16 (11720944_at) / RFU, VPS4B / Fold change vs veh, VPS4B / RFU, CREB1 / Fold change vs veh, CREB1 / RFU, DNAJC13 / Fold change vs veh, DNAJC13 / RFU, GNAQ / Fold change vs veh, GNAQ / RFU, CDK5R1 / Fold change vs veh, CDK5R1 / RFU, ZRANB3 / Fold change vs veh, ZRANB3 / RFU, CUL4A / Fold change vs veh, CUL4A / RFU, CCNY / Fold change vs veh, CCNY / RFU, UFL1 / Fold change vs veh, UFL1 / RFU, COG3 / Fold change vs veh, COG3 / RFU, DIAPH2 / Fold change vs veh, DIAPH2 / RFU, SKA2 / Fold change vs veh, SKA2 / RFU, AFF3 / Fold change vs veh, AFF3 / RFU, LMF1 / Fold change vs veh, LMF1 / RFU, IPO11 / Fold change vs veh, IPO11 / RFU, DFFB / Fold change vs veh, DFFB / RFU, FOXP1 / Fold change vs veh, FOXP1 / RFU, CARD8 / Fold change vs veh, CARD8 / RFU, STRN3 / Fold change vs veh, STRN3 / RFU, ADK / Fold change vs veh, ADK / RFU, RASSF2 / Fold change vs veh, RASSF2 / RFU, WIPF1 / Fold change vs veh, WIPF1 / RFU, LARP1B / Fold change vs veh, LARP1B / RFU, RASA1 / Fold change vs veh, RASA1 / RFU, RB1 / Fold change vs veh, RB1 / RFU, PPFIA1 / Fold change vs veh, PPFIA1 / RFU, MAT2A / Fold change vs veh, MAT2A / RFU, CCT5 / Fold change vs veh, CCT5 / RFU, WDR92 / Fold change vs veh, WDR92 / RFU, CUX1 / Fold change vs veh, CUX1 / RFU, TTC7A / Fold change vs veh, TTC7A / RFU, TMEM135 / Fold change vs veh, TMEM135 / RFU, DEPTOR / Fold change vs veh, DEPTOR / RFU, CPM / Fold change vs veh, CPM / RFU, DNAJB6 / Fold change vs veh, DNAJB6 / RFU, CACNA2D3 / Fold change vs veh, CACNA2D3 / RFU, DTX4 / Fold change vs veh, DTX4 / RFU, TFCP2 / Fold change vs veh, TFCP2 / RFU, GMCL1 /// GMCL1P1 / Fold change vs veh, GMCL1 /// GMCL1P1 / RFU, AEBP2 / Fold change vs veh, AEBP2 / RFU, SNHG1 /// SNORD22 /// SNORD25 /// SNORD26 /// SNORD27 /// SNORD28 /// SNORD29 /// SNORD31 / Fold change vs veh, SNHG1 /// SNORD22 /// SNORD25 /// SNORD26 /// SNORD27 /// SNORD28 /// SNORD29 /// SNORD31 / Fold change (Aza/veh), C12orf56 (ProbeSet 11735607_a_at) / Fold change (ACY-1035/veh), C12orf56 (ProbeSet 11735607_a_at) / Fold change (Aza/veh), FGFR1OP (ProbeSet 11751329_s_at) / Fold change (ACY-1035/veh), FGFR1OP (ProbeSet 11751329_s_at) / Fold change (Aza/veh), VPS36 (ProbeSet 11739960_a_at) / Fold change (ACY-1035/veh), VPS36 (ProbeSet 11739960_a_at) / RFU SYPL1 (11715823_x_at) / Fold change /veh SYPL1 (11715823_x_at) / RFU IGFBP7 (11715501_s_at) / Fold change /veh IGFBP7 (11715501_s_at) / RFU REEP3 (11722064_at) / Fold change /veh REEP3 (11722064_at) / RFU IGLL1 (11728026_x_at) / Fold change /veh IGLL1 (11728026_x_at): dose or concentration left out as unconfirmed
Details: ProbeSet 11730252_s_at; LIST B

Nc1ccc(-c2cccs2)cc1NC(=O)c1ccc2c(c1)cc(C1CC1)n2CCN1CCOCC1 [ACY-1035] was tested, and the “Fold change vs veh, AHCTF1” value was 0.96.
